Test results as given in PMC8157031, “Identification of Binding Regions of Bilirubin in the Ligand-Binding Pocket of the Peroxisome Proliferator-Activated Receptor-A (PPARalpha)” (Molecules, 2021).
Substitutions are numbered along the chain they refer to.

How the values were obtained:
[1] = target: T1, bovine serum albumin (BSA) (Bos taurus, UniProt P02769); test: bilirubin autofluorescence titration (excitation […] nm); type: binding
T1 construct: gene ALB

[2] = target: T2, PPARα (Mus musculus, UniProt P23204, A333G); test: bilirubin autofluorescence with purified mutant; binding reduced by […]
T2 construct: gene Ppara; full-length histidine-tagged mouse PPARα
T2 sequence (P23204 1-468 A333G): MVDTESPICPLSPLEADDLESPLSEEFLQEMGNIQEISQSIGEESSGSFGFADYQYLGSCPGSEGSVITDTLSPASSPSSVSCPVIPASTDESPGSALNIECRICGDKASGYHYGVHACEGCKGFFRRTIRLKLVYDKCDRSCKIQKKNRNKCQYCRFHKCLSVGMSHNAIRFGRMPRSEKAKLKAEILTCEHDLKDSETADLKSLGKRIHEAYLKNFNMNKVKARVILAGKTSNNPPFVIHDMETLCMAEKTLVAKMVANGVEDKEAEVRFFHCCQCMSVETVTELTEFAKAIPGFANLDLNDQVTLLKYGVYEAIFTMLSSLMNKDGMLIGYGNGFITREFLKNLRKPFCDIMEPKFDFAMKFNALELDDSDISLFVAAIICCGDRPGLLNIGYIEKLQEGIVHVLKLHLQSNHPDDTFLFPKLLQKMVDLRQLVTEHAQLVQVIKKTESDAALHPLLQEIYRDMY

[3] = target: T3, PPARα (Mus musculus, UniProt P23204, T283G); test: as above
T3 construct: gene Ppara; full-length histidine-tagged mouse PPARα
T3 sequence (P23204 1-468 T283G): T2 sequence (P23204 1-468 A333G) with T283G, G333A

[4] = target: T4, PPARα (Mus musculus, UniProt P23204); test: bilirubin autofluorescence titration with purified His-PPARα; type: binding
T4 construct: gene Ppara; full-length histidine-tagged mouse PPARα
T4 sequence (P23204 1-468): T2 sequence (P23204 1-468 A333G) with G333A

[5] = target: T1, bovine serum albumin (BSA); test: biliverdin autofluorescence dose-response (excitation […] nm); type: binding

T1 sequence (P02769 25-607): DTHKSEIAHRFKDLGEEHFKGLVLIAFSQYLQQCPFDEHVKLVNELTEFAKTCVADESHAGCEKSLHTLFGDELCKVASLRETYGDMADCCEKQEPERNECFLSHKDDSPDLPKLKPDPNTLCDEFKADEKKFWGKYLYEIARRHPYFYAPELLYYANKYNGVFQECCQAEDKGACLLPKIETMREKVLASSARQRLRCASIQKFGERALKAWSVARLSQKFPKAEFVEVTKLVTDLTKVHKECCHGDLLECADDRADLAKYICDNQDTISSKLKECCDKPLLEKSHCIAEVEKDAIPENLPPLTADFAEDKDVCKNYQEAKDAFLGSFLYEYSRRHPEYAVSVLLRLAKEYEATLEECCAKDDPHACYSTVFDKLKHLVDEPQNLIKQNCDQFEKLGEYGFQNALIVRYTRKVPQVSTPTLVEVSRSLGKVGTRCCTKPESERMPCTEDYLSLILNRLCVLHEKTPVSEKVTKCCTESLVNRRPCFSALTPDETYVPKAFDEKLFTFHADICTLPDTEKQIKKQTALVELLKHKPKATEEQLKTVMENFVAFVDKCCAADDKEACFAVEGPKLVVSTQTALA

Row | SMILES | Kd [1] | % reduction of binding [2] | % reduction of binding [3] | Kd [4] | biliverdin autofluorescence dose-response (excitation 440 nm) [5]
1 | C=CC1=C(C)/C(=C/c2[nH]c(Cc3[nH]c(/C=C4\NC(=O)C(C)=C4C=C)c(C)c3CCC(=O)O)c(CCC(=O)O)c2C)NC1=O [BR, bilirubin] | 11.1 µM | 17.0 % reduction of binding | 11.4 % reduction of binding | 5.13 µM | –
2 | C=CC1=C(C)/C(=C/C2=NC(=C\c3[nH]c(/C=C4\NC(=O)C(C)=C4C=C)c(C)c3CCC(=O)O)/C(CCC(=O)O)=C2C)NC1=O [BV, biliverdin] | – | – | – | – | The results in Figure 1C show a dose-dependent increase in fluorescence for biliverdin bound to albumin
